# Results reported in US9394329B2, “Glucopyranosyl derivatives and their uses in medicine” (Sunshine Lake Pharma Co., Ltd., priority 2013, dated 2016).
# Target: T1, SGLT-2 (Homo sapiens, UniProt P31639)
# T1 construct: expressed in transfected cells
# T1 sequence (P31639 1-672): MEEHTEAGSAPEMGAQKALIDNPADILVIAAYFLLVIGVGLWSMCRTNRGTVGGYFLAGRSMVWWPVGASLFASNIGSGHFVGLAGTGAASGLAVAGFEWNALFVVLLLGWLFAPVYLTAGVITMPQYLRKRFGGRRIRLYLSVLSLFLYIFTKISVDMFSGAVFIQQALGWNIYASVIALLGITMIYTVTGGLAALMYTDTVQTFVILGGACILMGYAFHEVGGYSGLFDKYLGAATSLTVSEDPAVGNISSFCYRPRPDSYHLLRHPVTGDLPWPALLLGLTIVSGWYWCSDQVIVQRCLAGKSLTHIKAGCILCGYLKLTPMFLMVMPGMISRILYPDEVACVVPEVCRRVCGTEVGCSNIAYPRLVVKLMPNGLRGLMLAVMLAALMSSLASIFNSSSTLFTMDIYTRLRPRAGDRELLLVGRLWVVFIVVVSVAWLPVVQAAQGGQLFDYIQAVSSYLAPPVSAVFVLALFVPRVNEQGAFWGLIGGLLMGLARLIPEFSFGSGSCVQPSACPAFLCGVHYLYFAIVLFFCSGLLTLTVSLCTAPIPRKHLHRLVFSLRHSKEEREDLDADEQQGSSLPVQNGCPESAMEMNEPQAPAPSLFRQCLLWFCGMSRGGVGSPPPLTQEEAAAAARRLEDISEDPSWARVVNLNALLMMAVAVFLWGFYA
# Test: SGLT-2 activity measurement ([14C]-AMG uptake in CHO cells expressing human SGLT2)
# Assay type: cell-based
# Conditions: CHO cells expressing human SGLT2, 0.5 μm [14C]-AMG, 37° C. for 1 hour
# Excerpt: The following methods can be used to determine the inhibitory activity of the compounds described in the invention for SGLT-1 and SGLT-2.
# ^14C-AMG solution was purchased from PerkinElmer, Cat. No. NEZ080001MC.
# α-Methylglucoside was purchased from Sigma, Cat. No. M9376-100G.
# N-methyl-D-glucosamine was purchased from Sigma, Cat. No. M2004-100G.
# Phloridzin was purchased from Sigma, Cat. No. P3449-1G.
# 96-Well plate was purchased from Corning, Cat. No. 3903.
# Mock-transfected FIP-in CHO cells (3×10^4 cells) and expressing human SGLT1/SGLT2 CHO cells were seeded into 96-well plates respectively. The cells were incubated for 12 hours. Each well of the 96-well plates was washed with 150 μL of sodium-free buffer once. To each well was added 50 μL of sodium-containing buffer containing test compounds having different concentrations and […] [^14C]-AMG. The incubation mixture was incubated at 37° C. for 1 hour. To each well was added 150 μL of precooled sodium-free buffer to terminate the reaction. The cell pellet was washed with sodium-free buffer three times and the residual liquid in well was removed. To each well was added 20 μL of precooled 100 mM NaOH. The 96-well plates were vibrated at 900 rpm for 5 minutes. Scintillation fluid (80 μL) was added to each well which was then vibrated at 600 rpm for 5 minutes. The amount of ^14C-AMG was quantitatively detected using liquid scintillation.
row,Compound,IC50
1,"CCOc1ccc(Cc2cccc([C@]34OC[C@](C(C)O)(O3)[C@@H](O)[C@H](O)[C@H]4O)c2)cc1 (stereo partly drawn) [Example 30, (1R,2S,3S,4R,5S)-5-[3-[(4-Ethoxyphenyl)methyl]phenyl]-1-(1-hydroxyethyl)-6,8-dioxabicyclo[3.2.1]octane-2,3,4-triol]",12.1 nM
2,"CCOc1ccc(Cc2cc([C@]34OC[C@](C5CNC(=O)O5)(O3)[C@@H](O)[C@H](O)[C@H]4O)ccc2Cl)cc1 (stereo partly drawn) [Example 27, 5-((1S,2S,3S,4R,5S)-5-(4-Chloro-3-(4-ethoxybenzyl)phenyl)-2,3,4-trihydroxy-6,8-dioxabicyclo[3.2.1]octan-1-yl)oxazolidin-2-one]",13.8 nM
3,"CCOc1ccc(Cc2cc([C@]34OC[C@](C(O)CNC)(O3)[C@@H](O)[C@H](O)[C@H]4O)ccc2Cl)cc1 (stereo partly drawn) [Example 11, (1R,2S,3S,4R,5S)-5-[4-chloro-3-[(4-ethoxyphenyl)methyl]phenyl]-1-[1-hydroxy-2-(methylamino)ethyl]-6,8-dioxabicyclo[3.2.1]octane-2,3,4-triol]",498 nM
4,"CCOc1ccc(Cc2cc([C@]34OC[C@](C5CO5)(O3)[C@@H](O)[C@H](O)[C@H]4O)ccc2Cl)cc1 (stereo partly drawn) [Example 26, (1S,2S,3S,4R,5S)-5-[4-chloro-3-[(4-ethoxyphenyl)methyl]phenyl]-1-(oxiran-2-yl)-6,8-dioxabicyclo[3.2.1]octane-2,3,4-triol]",6.85 nM
5,"CCOC(=O)OC(C)[C@@]12CO[C@@](c3ccc(Cl)c(Cc4ccc(OCC)cc4)c3)(O1)[C@H](O)[C@@H](O)[C@@H]2O (stereo partly drawn) [Example 12, 1-[(1S,2S,3S,4R,5S)-5-[4-Chloro-3-[(4-ethoxyphenyl)methyl]phenyl]-2,3,4-trihydroxy-6,8-dioxabicyclo[3.2.1]octan-1-yl]ethyl ethyl carbonate]",12.7 nM
6,"CCOc1ccc(Cc2cc([C@]34OC(C)[C@](CO)(O3)[C@@H](O)[C@H](O)[C@H]4O)ccc2Cl)cc1 (stereo partly drawn) [Example 8, (1R,2S,3S,4R,5S)-5-[4-Chloro-3-[(4-ethoxyphenyl)methyl]phenyl]-1-(hydroxymethyl)-7-methyl-6,8-dioxabicyclo[3.2.1]octane-2,3,4-triol]",51.8 nM
7,"CCOc1ccc(C(O)c2cc([C@]34OC[C@](C(C)O)(O3)[C@@H](O)[C@H](O)[C@H]4O)ccc2Cl)cc1 (stereo partly drawn) [Example 29, (1R,2S,3S,4R,5S)-5-[4-chloro-3-[(4-ethoxyphenyl)-hydroxy-methyl]phenyl]-1-(1-hydroxyethyl)-6,8-dioxabicyclo[3.2.1]octane-2,3,4-triol]",1.46 nM
8,"CCOc1ccc(Cc2cc([C@]34OCC(C(O)CC)(O3)[C@@H](O)[C@H](O)[C@H]4O)ccc2Cl)cc1 (stereo in doubt) [Example 3, (1S,2S,3S,4R,5S)-5-[4-Chloro-3 [(4-ethoxyphenyl)methyl]phenyl]-1-(1-hydroxypropyl)-6,8-dioxabicyclo[3.2.1]octane-2,3,4-triol]",9.8 nM
9,"CCOc1ccc(Cc2cc([C@]34OC[C@](C(O)CN)(O3)[C@@H](O)[C@H](O)[C@H]4O)ccc2Cl)cc1 (stereo partly drawn) [Example 10, (1R,2S,3S,4R,5S)-1-(2-Amino-1-hydroxy-ethyl)-5-[4-chloro-3-[(4-ethoxyphenyl)methyl]phenyl]-6,8-dioxabicyclo[3.2.1]octane-2,3,4-triol]",3730 nM
10,"CCOc1ccc(Cc2cc([C@]34OC[C@](C(C)(C)O)(O3)[C@@H](O)[C@H](O)[C@H]4O)ccc2Cl)c(F)c1F [Example 24, (1S,2S,3S,4R,5S)-5-[4-Chloro-3-[(4-ethoxy-2,3-difluoro-phenyl)methyl]phenyl]-1-(1-hydroxy-1-methyl-ethyl)-6,8-dioxabicyclo[3.2.1]octane-2,3,4-triol]",2.19 nM
11,"CCOc1ccc(Cc2cc([C@]34OC[C@](C(O)CO)(O3)[C@@H](O)[C@H](O)[C@H]4O)ccc2Cl)cc1 (stereo partly drawn) [Example 7, (1R,2S,3S,4R,5S)-5-[4-Chloro-3-[(4-ethoxyphenyl)methyl]phenyl]-1-(1,2-dihydroxyethyl)-6,8-dioxabicyclo[3.2.1]octane-2,3,4-triol]",4.96 nM
